Legend:
Type in all cases: in vivo
Conditions in all cases: 250 g/h, evaluated after 13 days
[1] = system: Alopecurus myosuroides (ALOMY); assay: Pre-emergence herbicidal glasshouse test, percentage damage
Method in brief: (§1)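 Spray: 250 g/h, aqueous acetone/water 50:50 + 0.5% Tween 20; pre-em 1 d after sowing, post-em at 8 d. Glasshouse 24/16 °C, 14 h light, 65% RH, watered twice daily. Read % damage at 13 d, scored 1–5 (5=80-100%).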

Avena fatua (AVEFA) [2] = assay: as above
Method in brief: as §1

[3] = system: Echinochloa crus-galli (ECHCG); assay: as above
Method in brief: as §1

Lolium perenne (LOLPE) [4] = assay: as above
Method in brief: as §1

Setaria faberi (SETFA) [5] = assay: as above
Method in brief: as §1

Setaria faberi (SETFA) [6] = assay: Post-emergence herbicidal glasshouse test, percentage damage
Method in brief: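 Percentage damage was scored 13 days after treatment on a five-point scale (1=0-19% to 5=80-100%). Treatments were post-emergence sprays on 8-day-old wheat, barley and SETFA plants in a glasshouse (24/16 °C day/night, 14 h light, 65% humidity), using acetone/water 50:50 with 0.5% Tween 20 at the stated rates. Wheat additionally received cloquintocet-mexyl safener at 50 g/ha.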

[7] = system: Alopecurus myosuroides (ALOMY); assay: as above
Method in brief: as §1

Avena fatua (AVEFA) [8] = assay: as above
Method in brief: as §1

[9] = system: Echinochloa crus-galli (ECHCG); assay: as above
Method in brief: as §1

Lolium perenne (LOLPE) [10] = assay: as above
Method in brief: as §1

Row | SMILES | ALOMY PRE percentage damage (five point scale) [1] | AVEFA PRE percentage damage (five point scale) (Avena fatua (AVEFA) [2]) | ECHCG PRE percentage damage (five point scale) [3] | LOLPE PRE percentage damage (five point scale) (Lolium perenne (LOLPE) [4]) | SETFA PRE percentage damage (five point scale) (Setaria faberi (SETFA) [5]) | SETFA POST percentage damage (five point scale) (Setaria faberi (SETFA) [6]) | ALOMY POST percentage damage (five point scale) [7] | AVEFA POST percentage damage (five point scale) (Avena fatua (AVEFA) [8]) | ECHCG POST percentage damage (five point scale) [9] | LOLPE POST percentage damage (five point scale) (Lolium perenne (LOLPE) [10])
1 | CC#Cc1cc(C)c(C2C(=O)CC3(CCN(C(=O)Cc4ccncn4)CC3)CC2=O)c(C)c1 [Compound A101] | 4 (4=60-79%) | 4 (4=60-79%) | 5 (5=80-100%) | 5 (5=80-100%) | 5 (5=80-100%) | 5 (5=80-100%) | 5 (5=80-100%) | 5 (5=80-100%) | 5 (5=80-100%) | 5 (5=80-100%)
2 | CC#Cc1cc(C)c(C2C(=O)CC3(CCN(C(=O)NC(=O)c4ccc(Cl)cn4)CC3)CC2=O)c(C)c1 [Compound A162] | 5 (5=80-100%) | 5 (5=80-100%) | 5 (5=80-100%) | 5 (5=80-100%) | 5 (5=80-100%) | 5 (5=80-100%) | 5 (5=80-100%) | 5 (5=80-100%) | 5 (5=80-100%) | 5 (5=80-100%)
3 | CC#Cc1cc(C)c(C2=C(OS(=O)(=O)c3ccccn3)CC3(CCN(S(=O)(=O)c4ccccn4)CC3)CC2=O)c(C)c1 [Compound P17] | 5 (5=80-100%) | 3 (3=40-59%) | 5 (5=80-100%) | 4 (4=60-79%) | 4 (4=60-79%) | 5 (5=80-100%) | 5 (5=80-100%) | 5 (5=80-100%) | 5 (5=80-100%) | 5 (5=80-100%)
4 | CC#Cc1cc(C)c(C2C(=O)CC3(CCN(c4ncccn4)CC3)CC2=O)c(C)c1 [Compound A37] | 5 (5=80-100%) | 4 (4=60-79%) | 5 (5=80-100%) | 5 (5=80-100%) | 5 (5=80-100%) | 5 (5=80-100%) | 5 (5=80-100%) | 5 (5=80-100%) | 5 (5=80-100%) | 5 (5=80-100%)
5 | CC#Cc1cc(C)c(C2=C(OC(C)=O)CC3(CCN(C(=O)C4CC4)CC3)CC2=O)c(C)c1 [Compound P29] | 5 (5=80-100%) | 5 (5=80-100%) | 5 (5=80-100%) | 5 (5=80-100%) | 5 (5=80-100%) | 5 (5=80-100%) | 5 (5=80-100%) | 5 (5=80-100%) | 5 (5=80-100%) | 5 (5=80-100%)
6 | CC#Cc1cc(C)c(C2C(=O)CC3(CCN(C(=O)[C@@H]4COCCO4)CC3)CC2=O)c(C)c1 [Compound A174] | 5 (5=80-100%) | 5 (5=80-100%) | 5 (5=80-100%) | 5 (5=80-100%) | 5 (5=80-100%) | 5 (5=80-100%) | 5 (5=80-100%) | 5 (5=80-100%) | 5 (5=80-100%) | 5 (5=80-100%)
7 | CC#Cc1cc(C)c(C2C(=O)CC3(CCN(C(=O)c4ccccn4)CC3)CC2=O)c(OC)c1 [Compound A74] | 5 (5=80-100%) | 5 (5=80-100%) | 5 (5=80-100%) | 5 (5=80-100%) | 5 (5=80-100%) | 5 (5=80-100%) | 5 (5=80-100%) | 5 (5=80-100%) | 5 (5=80-100%) | 5 (5=80-100%)
8 | CC#Cc1cc(C)c(C2=C(OC(=O)OC)CC3(CCN(C(=O)C(C)OC)CC3)CC2=O)c(C)c1 (stereo not shown) [Compound P32] | 5 (5=80-100%) | 5 (5=80-100%) | 5 (5=80-100%) | 5 (5=80-100%) | 5 (5=80-100%) | 5 (5=80-100%) | 5 (5=80-100%) | 5 (5=80-100%) | – | 5 (5=80-100%)
9 | CC#Cc1cc(C)c(C2C(=O)CC3(CCN(S(=O)(=O)c4cccnc4)CC3)CC2=O)c(C)c1 [Compound A98] | 4 (4=60-79%) | 5 (5=80-100%) | 4 (4=60-79%) | 5 (5=80-100%) | 3 (3=40-59%) | 5 (5=80-100%) | 5 (5=80-100%) | 5 (5=80-100%) | – | 5 (5=80-100%)
10 | CC#Cc1cc(C)c(C2C(=O)CC3(CCN(S(=O)(=O)Cc4ccon4)CC3)CC2=O)c(C)c1 [Compound A97] | 4 (4=60-79%) | 5 (5=80-100%) | 5 (5=80-100%) | 5 (5=80-100%) | 5 (5=80-100%) | 5 (5=80-100%) | 5 (5=80-100%) | 5 (5=80-100%) | – | 5 (5=80-100%)
11 | CC#Cc1cc(C)c(C2=C(O)CC3(CCN(C=O)CC3)CC2=O)c(C)c1 [Compound A96] | 5 (5=80-100%) | 5 (5=80-100%) | 5 (5=80-100%) | 5 (5=80-100%) | 5 (5=80-100%) | 5 (5=80-100%) | 5 (5=80-100%) | 5 (5=80-100%) | – | 5 (5=80-100%)
12 | CC#Cc1cc(C)c(C2C(=O)CC3(CCN(S(=O)(=O)CC4CC4)CC3)CC2=O)c(C)c1 [Compound A15] | 5 (5=80-100%) | 5 (5=80-100%) | 5 (5=80-100%) | 5 (5=80-100%) | 5 (5=80-100%) | 5 (5=80-100%) | 5 (5=80-100%) | 5 (5=80-100%) | – | 5 (5=80-100%)
13 | CC#Cc1cc(C)c(C2C(=O)CC3(CCN(C(=O)c4cccnn4)CC3)CC2=O)c(C)c1 [Compound A21] | 5 (5=80-100%) | 5 (5=80-100%) | 2 (2=20-39%) | 5 (5=80-100%) | 3 (3=40-59%) | 5 (5=80-100%) | 5 (5=80-100%) | 5 (5=80-100%) | – | 5 (5=80-100%)
14 | CC#Cc1cc(C)c(C2=C(OC(=O)OC)CC3(CCN(C(=O)c4ncccn4)CC3)CC2=O)c(C)c1 [Compound P22] | 5 (5=80-100%) | 5 (5=80-100%) | 5 (5=80-100%) | 5 (5=80-100%) | 5 (5=80-100%) | 5 (5=80-100%) | 5 (5=80-100%) | 5 (5=80-100%) | – | 5 (5=80-100%)

Source: patent US12043599B2, “Herbicidal compounds” (SYNGENTA PARTICIPATIONS AG, priority 2018, dated 2024)
